Reference: ChEMBL document CHEMBL4828744, “Design, synthesis and biological evaluation of pyridinylmethylenepiperidine derivatives as potent 5-HT1F receptor agonists for migraine therapy” (Eur J Med Chem, 2021)
The source made the active and inactive calls. The calls are words filed in the database; no cut-off is given here.

Columns and labels:
[1] = Cmax in monkey at 25 mg/kg, ig administered for 28 days by LC-MS/MS analysis; type: ADME, organism-based, Macaca mulatta; parameters: route intragastric, dose 25 mg/kg, time 28 day; details: rhesus monkey, in vivo, po
[2] = Toxicity in Sprague-Dawley rat assessed as effect on inflammatory reaction at 150 mg/kg/day, ig administered for 28 days; type: organism-based; details: in vivo, po, 672 h, time 28 day
[3] = Cmax in Sprague-Dawley rat at 15 mg/kg, ig administered for 28 days by LC-MS/MS analysis; type: ADME, organism-based; parameters: route intragastric, dose 15 mg/kg, time 28 day; details: in vivo, po
[4] = AUC(0 to t) in Sprague-Dawley rat at 5 mg/kg, ig measured for 24 hrs by LC-MS/MS analysis; type: ADME, organism-based; parameters: time 24 hrs, dose 5 mg/kg; details: in vivo, po
[5] = Cmax in Sprague-Dawley rat at 5 mg/kg, ig measured for 24 hrs by LC-MS/MS analysis; type: ADME, organism-based; parameters: route intragastric, time 24 hrs, dose 5 mg/kg; details: in vivo, po
[6] = AUC (0 to 24hrs) in monkey at 5 mg/kg, ig by LC-MS/MS analysis; type: ADME, organism-based, Macaca mulatta; parameters: time < 24 hr, route intragastric, dose 5 mg/kg; details: rhesus monkey, in vivo, po
[7] = Half life in Sprague-Dawley rat at 1 mg/kg, iv measured for 24 hrs by LC-MS/MS analysis; type: ADME, organism-based; details: in vivo
[8] = Cmax in Sprague-Dawley rat at 1 mg/kg, iv measured for 24 hrs by LC-MS/MS analysis; type: ADME, organism-based; parameters: route intravenous, dose 1 mg/kg, time 24 hrs; details: in vivo
[9] = Toxicity in Sprague-Dawley rat assessed as effect on body weight at 150 mg/kg/day, ig administered for 28 days; type: organism-based; details: in vivo, po, 672 h, time 28 day
[10] = Toxicity in ig dosed monkey administered for 28 days; type: organism-based, Macaca mulatta; details: rhesus monkey, in vivo, po; time 28 day
[11] = biological target: 5-HT1A/5-HT1F (Homo sapiens) (UniProt P30939+P08908); assay: Selectivity ratio of IC50 for human 5HT1A receptor to IC50 for human 5HT1F receptor; type: protein assay
[12] = Cmax in monkey at 1 mg/kg, ig administered for 28 days by LC-MS/MS analysis; type: ADME, organism-based, Macaca mulatta; parameters: route intragastric, dose 1 mg/kg, time 28 day; details: rhesus monkey, in vivo, po
[13] = AUC (0 to 24hrs) in monkey at 25 mg/kg, ig by LC-MS/MS analysis; type: ADME, organism-based, Macaca mulatta; parameters: time < 24 hr, route intragastric, dose 25 mg/kg; details: rhesus monkey, in vivo, po
[14] = AUC (0 to 24hrs) in Sprague-Dawley rat at 150 mg/kg, ig by LC-MS/MS analysis; type: ADME, organism-based; parameters: time < 24 hr, route intragastric, dose 150 mg/kg; details: in vivo, po
Homo sapiens [15] = species: Homo sapiens; assay: Selectivity ratio of IC50 for human 5HT2A receptor to IC50 for human 5HT1F receptor
Rattus norvegicus [16] = assay: Antimigraine activity against electrical stimulation of trigeminal ganglion migraine Wistar rat model assessed as reduction in c-Fos-positive cells at 10 ug/kg, po measured after 60 mins by confocal fluorescence microscopic analysis; type: functional, organism-based; details: dose 10.0 µg/kg
Homo sapiens [17] = species: Homo sapiens; assay: Selectivity ratio of IC50 for human 5HT2B receptor to IC50 for human 5HT1F receptor
Homo sapiens [18] = species: Homo sapiens; assay: Selectivity ratio of IC50 for human 5HT3 receptor to IC50 for human 5HT1F receptor
[19] = biological target: 5-hydroxytryptamine receptor 2B (Homo sapiens, UniProt P41595); assay: Binding affinity to human 5HT2B receptor
[20] = Toxicity in ig dosed Sprague-Dawley rat administered for 28 days; type: organism-based; details: in vivo, po, time 28 day
Rattus norvegicus [21] = assay: Antimigraine activity against electrical stimulation of trigeminal ganglion migraine Wistar rat model assessed as reduction in dural plasma protein extravasation at 0.01 to 0.1 ug/kg, po measured after 45 mins by confocal fluorescence microscopic analysis; type: functional, organism-based; details: dose 0.01-0.1 µg/kg
[22] = Toxicity in NewZealand rabbit Saphenous vein rings assessed as induction of vasoconstriction at 0.01 to 100 uM; type: tissue-based, Oryctolagus cuniculus; details: dose 0.01-100 µM
[23] = Cmax in Sprague-Dawley rat at 150 mg/kg, ig administered for 28 days by LC-MS/MS analysis; type: ADME, organism-based; parameters: route intragastric, dose 150 mg/kg, time 28 day; details: in vivo, po
[24] = biological target: T1, 5-hydroxytryptamine receptor 2C (Homo sapiens, UniProt P28335); assay: Binding affinity to human 5HT2C receptor
T1 sequence (P28335 whole entry): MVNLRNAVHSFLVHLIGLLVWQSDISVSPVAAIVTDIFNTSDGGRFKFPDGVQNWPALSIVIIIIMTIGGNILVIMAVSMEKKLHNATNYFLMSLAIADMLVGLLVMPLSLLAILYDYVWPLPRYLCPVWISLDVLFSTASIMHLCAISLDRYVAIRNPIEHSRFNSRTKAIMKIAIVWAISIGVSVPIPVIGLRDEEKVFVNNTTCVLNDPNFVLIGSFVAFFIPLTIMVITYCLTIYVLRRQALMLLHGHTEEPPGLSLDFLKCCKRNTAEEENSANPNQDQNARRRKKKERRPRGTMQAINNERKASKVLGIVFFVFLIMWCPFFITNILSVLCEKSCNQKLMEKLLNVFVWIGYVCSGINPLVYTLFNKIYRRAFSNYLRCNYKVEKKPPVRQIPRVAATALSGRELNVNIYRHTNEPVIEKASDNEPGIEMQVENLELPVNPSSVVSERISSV

[25] = biological target: T2, 5-hydroxytryptamine receptor 1A (Homo sapiens, UniProt P08908); assay: Binding affinity to human 5HT1A receptor
T2 sequence (P08908 whole entry): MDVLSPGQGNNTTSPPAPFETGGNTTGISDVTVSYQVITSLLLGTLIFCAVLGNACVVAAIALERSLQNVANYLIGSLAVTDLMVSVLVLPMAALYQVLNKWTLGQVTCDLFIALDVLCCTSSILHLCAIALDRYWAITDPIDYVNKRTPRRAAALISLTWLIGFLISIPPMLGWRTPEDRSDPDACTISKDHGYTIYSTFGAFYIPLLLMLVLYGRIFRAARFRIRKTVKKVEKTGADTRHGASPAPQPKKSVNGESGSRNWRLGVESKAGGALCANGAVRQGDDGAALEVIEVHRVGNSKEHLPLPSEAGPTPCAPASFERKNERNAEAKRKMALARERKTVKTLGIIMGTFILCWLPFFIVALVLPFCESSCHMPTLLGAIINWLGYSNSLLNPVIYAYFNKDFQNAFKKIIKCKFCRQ

[26] = biological target: T3, 5-hydroxytryptamine receptor 1F (Homo sapiens) (UniProt P30939); assay: Potency index, ratio of lasmiditan EC50 to test compound EC50 for agonist activity at 5HT1F receptor (unknown origin) expressed in HEK293 cells measured after 60 mins by Fluo-4AM dye based FLIPR assay; type: functional, cell-based
T3 sequence (whole entry): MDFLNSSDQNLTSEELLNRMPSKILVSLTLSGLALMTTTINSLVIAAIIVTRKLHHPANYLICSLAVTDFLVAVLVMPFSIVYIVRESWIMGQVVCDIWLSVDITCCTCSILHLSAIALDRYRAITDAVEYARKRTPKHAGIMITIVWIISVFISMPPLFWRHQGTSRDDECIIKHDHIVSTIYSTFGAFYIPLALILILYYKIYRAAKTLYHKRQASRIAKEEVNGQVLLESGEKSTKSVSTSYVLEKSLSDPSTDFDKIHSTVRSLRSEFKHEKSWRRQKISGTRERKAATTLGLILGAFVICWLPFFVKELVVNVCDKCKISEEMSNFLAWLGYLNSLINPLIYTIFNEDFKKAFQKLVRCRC

[27] = biological target: T4, 5-hydroxytryptamine receptor 1F (Homo sapiens, UniProt P30939); assay: Agonist activity at 5HT1F receptor (unknown origin) expressed in HEK293 cells measured after 60 mins by Fluo-4AM dye based FLIPR assay; type: functional, cell-based; details: read-out: IC50 (the source's name)
T4 sequence (P30939 whole entry): T3 sequence (whole entry)

Chain of 5-hydroxytryptamine receptor 2B (P41595 whole entry): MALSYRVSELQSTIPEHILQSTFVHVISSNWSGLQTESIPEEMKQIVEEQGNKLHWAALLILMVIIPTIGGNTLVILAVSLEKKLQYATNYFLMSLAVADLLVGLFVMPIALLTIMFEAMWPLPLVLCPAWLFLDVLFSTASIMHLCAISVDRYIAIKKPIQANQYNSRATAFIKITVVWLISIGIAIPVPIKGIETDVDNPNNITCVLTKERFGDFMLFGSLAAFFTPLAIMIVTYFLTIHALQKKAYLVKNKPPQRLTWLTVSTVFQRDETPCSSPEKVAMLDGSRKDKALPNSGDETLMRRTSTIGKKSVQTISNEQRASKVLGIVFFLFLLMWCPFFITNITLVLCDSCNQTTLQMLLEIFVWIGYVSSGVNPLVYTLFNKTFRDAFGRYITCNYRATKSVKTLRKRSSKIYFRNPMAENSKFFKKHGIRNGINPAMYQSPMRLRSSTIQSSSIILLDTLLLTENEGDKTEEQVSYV

CN1CCC(=C(F)c2cccc(NC(=O)c3c(F)cc(F)cc3F)n2)CC1
Cmax [1]: 3630 ng/mL
Activity [2]: Non-Toxic
Cmax [3]: 160 ng/mL
AUC(0-t) at 24 h [4]: 404 ng·h/mL
Cmax [5]: 88 ng/mL
AUC(0-t) at 24 h [6]: 45200 ng·h/mL
half-life [7]: 1.33 h
Cmax [8]: 110 ng/mL
Activity [9]: Non-Toxic
NOAEL at 672 h [10]: 5 mg/kg/day
Ratio IC50 [11]: 472
Cmax [12]: 764 ng/mL
AUC(0-t) at 24 h [13]: 67400 ng·h/mL
AUC(0-t) at 24 h [14]: 10200 ng·h/mL
Ratio IC50 (Homo sapiens [15]): > 10000
Activity (Rattus norvegicus [16]): Active
Ratio IC50 (Homo sapiens [17]): > 10000
Ratio IC50 (Homo sapiens [18]): > 10000
IC50 [19]: 8.61 µM
NOAEL at 672 h [20]: 50 mg/kg/day
Activity (Rattus norvegicus [21]): Active
Activity [22]: Non-Toxic
Cmax [23]: 841 ng/mL
IC50 [24]: 7.06 µM
IC50 [25]: 0.151 µM
Ratio EC50 [26]: 4
EC50 [27]: 0.0196 µM
